Laboratory results as given in the NIST ThermoML archive (doi:10.1021/je060271a).
Values joined by “and” are separate entries in the source; they are usually repeats but may differ in a detail not shown here. Identical values can stand only once. Numbers after ± are expanded uncertainties.

Settings: Liquid, Vibrating tube method

CCCCCC(=O)OCC(COC(=O)CCCCC)(COC(=O)CCCCC)COC(=O)CCCCC [pentaerythritol tetrahexanoate]
Settings | mass density
283.15 K, 30604 kPa | 1021 ± 1.2 kg/m3
283.15 K, 30620 kPa | 1020.9 ± 1.2 kg/m3
283.15 K, 30636 kPa | 1020.9 ± 1.2 kg/m3
283.15 K, 30656 kPa | 1021.1 ± 1.2 kg/m3
283.15 K, 30672 kPa | 1020.9 ± 1.2 kg/m3
283.15 K, 30688 kPa | 1021 ± 1.2 kg/m3
283.15 K, 30708 kPa | 1020.9 ± 1.2 kg/m3
283.15 K, 30724 kPa | 1021 ± 1.2 kg/m3
283.15 K, 30740 kPa | 1021 ± 1.2 kg/m3
283.15 K, 30757 kPa | 1021 ± 1.2 kg/m3
283.15 K, 30777 kPa | 1020.9 ± 1.2 kg/m3
283.15 K, 30793 kPa | 1021.1 ± 1.2 kg/m3
283.15 K, 30809 kPa | 1021 ± 1.2 kg/m3
283.15 K, 30829 kPa | 1021 ± 1.2 kg/m3
283.15 K, 30846 kPa | 1021.1 ± 1.2 kg/m3
283.15 K, 30882 kPa | 1021 ± 1.2 kg/m3
283.15 K, 30934 kPa | 1021.1 ± 1.2 kg/m3
283.15 K, 30951 kPa | 1021.1 ± 1.2 kg/m3
283.15 K, 30967 kPa | 1021.1 ± 1.2 kg/m3
283.15 K, 30987 kPa | 1021 ± 1.2 kg/m3
283.15 K, 31003 kPa | 1021.3 ± 1.2 kg/m3
283.15 K, 31020 kPa | 1021.2 ± 1.2 kg/m3
283.15 K, 31040 kPa | 1021.1 ± 1.2 kg/m3
283.15 K, 31056 kPa | 1021.2 ± 1.2 kg/m3
283.15 K, 31073 kPa | 1021.1 ± 1.2 kg/m3
283.15 K, 31093 kPa | 1021.1 ± 1.2 kg/m3
283.15 K, 31110 kPa | 1021.1 ± 1.2 kg/m3
283.15 K, 31127 kPa | 1021.2 ± 1.2 kg/m3
283.15 K, 31147 kPa | 1021.2 ± 1.2 kg/m3
283.15 K, 31164 kPa | 1021.2 ± 1.2 kg/m3
283.15 K, 31180 kPa | 1021.2 ± 1.2 kg/m3
283.15 K, 31201 kPa | 1021.3 ± 1.2 kg/m3
283.15 K, 31217 kPa | 1021.3 ± 1.2 kg/m3
283.15 K, 31234 kPa | 1021.3 ± 1.2 kg/m3
283.15 K, 31254 kPa | 1021.3 ± 1.2 kg/m3
283.15 K, 31272 kPa | 1021.2 ± 1.2 kg/m3
283.15 K, 31289 kPa | 1021.2 ± 1.2 kg/m3
283.15 K, 31306 kPa | 1021.2 ± 1.2 kg/m3
283.15 K, 31327 kPa | 1021.3 ± 1.2 kg/m3
283.15 K, 31343 kPa | 1021.3 ± 1.2 kg/m3
283.15 K, 31361 kPa | 1021.3 ± 1.2 kg/m3
283.15 K, 31378 kPa | 1021.3 ± 1.2 kg/m3
283.15 K, 31398 kPa | 1021.4 ± 1.2 kg/m3
283.15 K, 31415 kPa | 1021.3 ± 1.2 kg/m3
283.15 K, 31432 kPa | 1021.4 ± 1.2 kg/m3
283.15 K, 31453 kPa | 1021.5 ± 1.2 kg/m3
283.15 K, 31470 kPa | 1021.4 ± 1.2 kg/m3
283.15 K, 31488 kPa | 1021.5 ± 1.2 kg/m3
283.15 K, 31509 kPa | 1021.5 ± 1.2 kg/m3
283.15 K, 31528 kPa | 1021.5 ± 1.2 kg/m3
283.15 K, 31545 kPa | 1021.6 ± 1.2 kg/m3
283.15 K, 31562 kPa | 1021.5 ± 1.2 kg/m3
283.15 K, 31583 kPa | 1021.3 ± 1.2 kg/m3
283.15 K, 31600 kPa | 1021.4 ± 1.2 kg/m3
283.15 K, 31618 kPa | 1021.5 ± 1.2 kg/m3
283.15 K, 31639 kPa | 1021.5 ± 1.2 kg/m3
283.15 K, 31656 kPa | 1021.5 ± 1.2 kg/m3
283.15 K, 31674 kPa | 1021.5 ± 1.2 kg/m3
283.15 K, 31691 kPa | 1021.5 ± 1.2 kg/m3
283.15 K, 31712 kPa | 1021.6 ± 1.2 kg/m3
283.15 K, 31730 kPa | 1021.4 ± 1.2 kg/m3
283.15 K, 31748 kPa | 1021.6 ± 1.2 kg/m3
283.15 K, 31770 kPa | 1021.4 ± 1.2 kg/m3
283.15 K, 31787 kPa | 1021.5 ± 1.2 kg/m3
283.15 K, 31805 kPa | 1021.5 ± 1.2 kg/m3
283.15 K, 31823 kPa | 1021.6 ± 1.2 kg/m3
283.15 K, 31845 kPa | 1021.5 ± 1.2 kg/m3
283.15 K, 31863 kPa | 1021.6 ± 1.2 kg/m3
283.15 K, 31881 kPa | 1021.5 ± 1.2 kg/m3
283.15 K, 31902 kPa | 1021.5 ± 1.2 kg/m3
283.15 K, 31920 kPa | 1021.4 ± 1.2 kg/m3
283.15 K, 31942 kPa | 1021.6 ± 1.2 kg/m3
283.15 K, 31960 kPa | 1021.6 ± 1.2 kg/m3
283.15 K, 31978 kPa | 1021.7 ± 1.2 kg/m3
283.15 K, 31996 kPa | 1021.6 ± 1.2 kg/m3
283.15 K, 32019 kPa | 1021.5 ± 1.2 kg/m3
283.15 K, 32037 kPa | 1021.7 ± 1.2 kg/m3
283.15 K, 32055 kPa | 1021.8 ± 1.2 kg/m3
283.15 K, 32077 kPa | 1021.7 ± 1.2 kg/m3
283.15 K, 32096 kPa | 1021.6 ± 1.2 kg/m3
283.15 K, 32115 kPa | 1021.8 ± 1.2 kg/m3
283.15 K, 32133 kPa | 1021.7 ± 1.2 kg/m3
283.15 K, 32156 kPa | 1021.6 ± 1.2 kg/m3
283.15 K, 32349 kPa | 1021.8 ± 1.2 kg/m3
283.15 K, 32369 kPa | 1021.8 ± 1.2 kg/m3
283.15 K, 32386 kPa | 1021.7 ± 1.2 kg/m3
283.15 K, 32399 kPa | 1021.8 ± 1.2 kg/m3
283.15 K, 32420 kPa | 1021.7 ± 1.2 kg/m3
283.15 K, 32436 kPa | 1021.9 ± 1.2 kg/m3
283.15 K, 32455 kPa | 1022 ± 1.2 kg/m3
283.15 K, 32472 kPa | 1022 ± 1.2 kg/m3
283.15 K, 32488 kPa | 1021.9 ± 1.2 kg/m3
283.15 K, 32506 kPa | 1021.9 ± 1.2 kg/m3
283.15 K, 32526 kPa | 1021.9 ± 1.2 kg/m3
283.15 K, 32543 kPa | 1022 ± 1.2 kg/m3
283.15 K, 32560 kPa | 1021.9 ± 1.2 kg/m3
283.15 K, 32575 kPa | 1022 ± 1.2 kg/m3
283.15 K, 32587 kPa | 1021.9 ± 1.2 kg/m3
283.15 K, 32601 kPa | 1022 ± 1.2 kg/m3
283.15 K, 32613 kPa | 1021.9 ± 1.2 kg/m3
283.15 K, 32626 kPa | 1021.9 ± 1.2 kg/m3
283.15 K, 32639 kPa | 1022 ± 1.2 kg/m3
283.15 K, 32654 kPa | 1022 ± 1.2 kg/m3
283.15 K, 32665 kPa | 1022 ± 1.2 kg/m3
283.15 K, 32672 kPa | 1022 ± 1.2 kg/m3
283.15 K, 32680 kPa | 1022 ± 1.2 kg/m3
283.15 K, 32688 kPa | 1022.1 ± 1.2 kg/m3
283.15 K, 32694 kPa | 1022 ± 1.2 kg/m3
283.15 K, 32703 kPa | 1022 ± 1.2 kg/m3
283.15 K, 32708 kPa | 1022.1 ± 1.2 kg/m3
283.15 K, 32709 kPa | 1022 ± 1.2 kg/m3
283.15 K, 32711 kPa | 1021.8 ± 1.2 kg/m3
283.15 K, 32715 kPa | 1022 ± 1.2 kg/m3
283.15 K, 32718 kPa | 1022 ± 1.2 kg/m3
283.15 K, 32720 kPa | 1022 ± 1.2 kg/m3 and 1022.1 ± 1.2 kg/m3
283.15 K, 32723 kPa | 1021.9 ± 1.2 kg/m3 and 1022 ± 1.2 kg/m3
283.15 K, 32725 kPa | 1021.9 ± 1.2 kg/m3
283.15 K, 32726 kPa | 1022 ± 1.2 kg/m3
283.15 K, 32853 kPa | 1022 ± 1.2 kg/m3
283.15 K, 32977 kPa | 1022.2 ± 1.2 kg/m3
283.15 K, 32981 kPa | 1022.1 ± 1.2 kg/m3
283.15 K, 32985 kPa | 1022.1 ± 1.2 kg/m3
283.15 K, 32990 kPa | 1022.1 ± 1.2 kg/m3
283.15 K, 32992 kPa | 1022.2 ± 1.2 kg/m3
283.15 K, 32997 kPa | 1022.1 ± 1.2 kg/m3
283.15 K, 33001 kPa | 1022.1 ± 1.2 kg/m3
283.15 K, 33005 kPa | 1022.2 ± 1.2 kg/m3
283.16 K, 90.5 kPa | 1004.1 ± 1.2 kg/m3
283.16 K, 90.7 kPa | 1004.2 ± 1.2 kg/m3
283.16 K, 90.8 kPa | 1004.2 ± 1.2 kg/m3
283.16 K, 90.9 kPa | 1004.1 ± 1.2 kg/m3 and 1004.3 ± 1.2 kg/m3
283.16 K, 91.2 kPa | 1004.3 ± 1.2 kg/m3 and 1004.2 ± 1.2 kg/m3
283.16 K, 91.4 kPa | 1004.1 ± 1.2 kg/m3 and 1004.2 ± 1.2 kg/m3 and 1004 ± 1.2 kg/m3
283.16 K, 91.5 kPa | 1004.1 ± 1.2 kg/m3 and 1004.2 ± 1.2 kg/m3
283.16 K, 91.7 kPa | 1004.2 ± 1.2 kg/m3 and 1004.1 ± 1.2 kg/m3
283.16 K, 91.9 kPa | 1004.2 ± 1.2 kg/m3
283.16 K, 92.1 kPa | 1004.3 ± 1.2 kg/m3
283.16 K, 92.2 kPa | 1004.2 ± 1.2 kg/m3 and 1004.1 ± 1.2 kg/m3
283.16 K, 92.4 kPa | 1004.2 ± 1.2 kg/m3
283.16 K, 92.6 kPa | 1004.2 ± 1.2 kg/m3
283.16 K, 92.8 kPa | 1004.1 ± 1.2 kg/m3 and 1004.2 ± 1.2 kg/m3 and 1004 ± 1.2 kg/m3
283.16 K, 93.1 kPa | 1004.2 ± 1.2 kg/m3 and 1004.1 ± 1.2 kg/m3
283.16 K, 93.3 kPa | 1004.1 ± 1.2 kg/m3 and 1004.2 ± 1.2 kg/m3
283.16 K, 93.6 kPa | 1004.2 ± 1.2 kg/m3
283.16 K, 93.8 kPa | 1004.1 ± 1.2 kg/m3 and 1004.2 ± 1.2 kg/m3
